ChEMBL document CHEMBL3885881, “DrugMatrix”

Species on record: Rattus norvegicus
Assay: DrugMatrix - Regimen: Daily Repeat
Assay type: toxicity, organism-based, Sprague-Dawley
Set-up: regimen Daily Repeat, gender Male, age 6-8 weeks
Conditions: in vivo, sc, 0 mg/kg, route mini-PUMP - SUBCUTANEOUS, dose level Control, vehicle 100 % SALINE; for ABSOLUTE BASOPHIL / ABSOLUTE EOSINOPHIL / ABSOLUTE LYMPHOCYTE / ABSOLUTE MONOCYTE / ABSOLUTE SEGMENTED NEUTROPHIL / BASOPHIL / EOSINOPHIL / ERYTHROCYTE COUNT / HEMATOCRIT / HEMOGLOBIN / LEUKOCYTE COUNT / LYMPHOCYTE / MEAN CORPUSCULAR HEMOGLOBIN / MEAN CORPUSCULAR HEMOGLOBIN CONCENTRATION / MEAN CORPUSCULAR VOLUME / MONOCYTE / NEUTROPHIL / NUCLEATED RED BLOOD CELLS / PLATELET COUNT: tissue Blood; for ALANINE AMINOTRANSFERASE / ALBUMIN / ALKALINE PHOSPHATASE / ASPARTATE AMINOTRANSFERASE / BLOOD UREA NITROGEN / CARBON DIOXIDE / CHLORIDE / CHOLESTEROL / CREATININE / GLUCOSE / LACTATE DEHYDROGENASE / LIPASE / PHOSPHORUS / POTASSIUM / SODIUM / TOTAL BILIRUBIN / TOTAL PROTEIN / URIC ACID: tissue Plasma

With `NC[C@H](O)c1ccc(O)c(O)c1` [NOREPINEPHRINE] the “ABSOLUTE BASOPHIL” value (72 h, time 3 day) was 0 CELLS/uL, the “ABSOLUTE EOSINOPHIL” value (72 h, time 3 day) was 77.17 CELLS/uL and the “ABSOLUTE LYMPHOCYTE” value (72 h, time 3 day) was 14293.83 CELLS/uL. For the same compound, the “ABSOLUTE MONOCYTE” value (72 h, time 3 day) was 354 CELLS/uL, the “ABSOLUTE SEGMENTED NEUTROPHIL” value (72 h, time 3 day) was 1658.33 CELLS/uL and the BASOPHIL (72 h, time 3 day) was 0%. For the same compound, the EOSINOPHIL (72 h, time 3 day) was 0.5%, the “ERYTHROCYTE COUNT” value (72 h, time 3 day) was 6.27 x10E6/uL and the HEMATOCRIT (72 h, time 3 day) was 36.95%. For the same compound, the HEMOGLOBIN (72 h, time 3 day) was 13.4 G/DL, the “LEUKOCYTE COUNT” value (72 h, time 3 day) was 16.38 x10E3/uL and the LYMPHOCYTE (72 h, time 3 day) was 87.17%. The “MEAN CORPUSCULAR HEMOGLOBIN” value (72 h, time 3 day) was 21.42 pg, the “MEAN CORPUSCULAR HEMOGLOBIN CONCENTRATION” value (72 h, time 3 day) was 36.27 G/DL and the “MEAN CORPUSCULAR VOLUME” value (72 h, time 3 day) was 59.03 fL. For the same compound, the MONOCYTE (72 h, time 3 day) was 2%, the NEUTROPHIL (72 h, time 3 day) was 10.33% and the “NUCLEATED RED BLOOD CELLS” value (72 h, time 3 day) was 0 /100WBC. For the same compound, the “PLATELET COUNT” value (72 h, time 3 day) was 904.67 x10E3/uL, the “ALANINE AMINOTRANSFERASE” value (72 h, time 3 day) was 48.33 u/L and the ALBUMIN (72 h, time 3 day) was 3.82 G/DL. The “ALKALINE PHOSPHATASE” value (72 h, time 3 day) was 282.33 u/L, the “ASPARTATE AMINOTRANSFERASE” value (72 h, time 3 day) was 86.83 u/L and the “BLOOD UREA NITROGEN” value (72 h, time 3 day) was 20.17 mg/dL. For the same compound, the “CARBON DIOXIDE” value (72 h, time 3 day) was 34.67 mmol/L, the CHLORIDE (72 h, time 3 day) was 102 MEQ/L and the CHOLESTEROL (72 h, time 3 day) was 71.5 mg/dL. For the same compound, the CREATININE (72 h, time 3 day) was 0.2 mg/dL, the GLUCOSE (72 h, time 3 day) was 136.83 mg/dL and the “LACTATE DEHYDROGENASE” value (72 h, time 3 day) was 159 u/L. The LIPASE (72 h, time 3 day) was 9 u/L, the PHOSPHORUS (72 h, time 3 day) was 10.12 mg/dL and the POTASSIUM (72 h, time 3 day) was 5.92 MEQ/L. For the same compound, the SODIUM (72 h, time 3 day) was 147.8 MEQ/L, the “TOTAL BILIRUBIN” value (72 h, time 3 day) was 0.2 mg/dL and the “TOTAL PROTEIN” value (72 h, time 3 day) was 6.05 G/DL. For the same compound, the “URIC ACID” value (72 h, time 3 day) was 1.4 mg/dL, the “ABSOLUTE BASOPHIL” value (120 h, time 5 day) was 0 CELLS/uL and the “ABSOLUTE EOSINOPHIL” value (120 h, time 5 day) was 0 CELLS/uL. The “ABSOLUTE LYMPHOCYTE” value (120 h, time 5 day) was 14257.33 CELLS/uL, the “ABSOLUTE MONOCYTE” value (120 h, time 5 day) was 326 CELLS/uL and the “ABSOLUTE SEGMENTED NEUTROPHIL” value (120 h, time 5 day) was 3216.67 CELLS/uL. The BASOPHIL (120 h, time 5 day) was 0%, the EOSINOPHIL (120 h, time 5 day) was 0% and the “ERYTHROCYTE COUNT” value (120 h, time 5 day) was 6.11 x10E6/uL. For the same compound, the HEMATOCRIT (120 h, time 5 day) was 36.22%, the HEMOGLOBIN (120 h, time 5 day) was 13.18 G/DL and the “LEUKOCYTE COUNT” value (120 h, time 5 day) was 17.8 x10E3/uL. For the same compound, the LYMPHOCYTE (120 h, time 5 day) was 80.5%, the “MEAN CORPUSCULAR HEMOGLOBIN” value (120 h, time 5 day) was 21.62 pg and the “MEAN CORPUSCULAR HEMOGLOBIN CONCENTRATION” value (120 h, time 5 day) was 36.42 G/DL. The “MEAN CORPUSCULAR VOLUME” value (120 h, time 5 day) was 59.37 fL, the MONOCYTE (120 h, time 5 day) was 1.83% and the NEUTROPHIL (120 h, time 5 day) was 17.67%. The “NUCLEATED RED BLOOD CELLS” value (120 h, time 5 day) was 0 /100WBC, the “PLATELET COUNT” value (120 h, time 5 day) was 1311 x10E3/uL and the “ALANINE AMINOTRANSFERASE” value (120 h, time 5 day) was 47 u/L. For the same compound, the ALBUMIN (120 h, time 5 day) was 3.83 G/DL, the “ALKALINE PHOSPHATASE” value (120 h, time 5 day) was 260.33 u/L and the “ASPARTATE AMINOTRANSFERASE” value (120 h, time 5 day) was 76.17 u/L. For the same compound, the “BLOOD UREA NITROGEN” value (120 h, time 5 day) was 14.67 mg/dL, the “CARBON DIOXIDE” value (120 h, time 5 day) was 31.33 mmol/L and the CHLORIDE (120 h, time 5 day) was 101.17 MEQ/L. It also gave a CHOLESTEROL (120 h, time 5 day) of 75 mg/dL, a CREATININE (120 h, time 5 day) of 0.16 mg/dL and a GLUCOSE (120 h, time 5 day) of 152.67 mg/dL. The “LACTATE DEHYDROGENASE” value (120 h, time 5 day) was 147.33 u/L, the LIPASE (120 h, time 5 day) was 9.33 u/L and the PHOSPHORUS (120 h, time 5 day) was 10.97 mg/dL. The POTASSIUM (120 h, time 5 day) was 6 MEQ/L, the SODIUM (120 h, time 5 day) was 145.52 MEQ/L and the “TOTAL BILIRUBIN” value (120 h, time 5 day) was 0.17 mg/dL. The “TOTAL PROTEIN” value (120 h, time 5 day) was 5.83 G/DL, the “URIC ACID” value (120 h, time 5 day) was 1.27 mg/dL and the “ABSOLUTE BASOPHIL” value ([…], time 14 day) was 0 CELLS/uL. For the same compound, the “ABSOLUTE EOSINOPHIL” value ([…], time 14 day) was 64.5 CELLS/uL, the “ABSOLUTE LYMPHOCYTE” value ([…], time 14 day) was 12507.83 CELLS/uL and the “ABSOLUTE MONOCYTE” value ([…], time 14 day) was 380.33 CELLS/uL. The “ABSOLUTE SEGMENTED NEUTROPHIL” value ([…], time 14 day) was 2414 CELLS/uL, the BASOPHIL ([…], time 14 day) was 0% and the EOSINOPHIL ([…], time 14 day) was 0.5%. The “ERYTHROCYTE COUNT” value ([…], time 14 day) was 6.1 x10E6/uL, the HEMATOCRIT ([…], time 14 day) was 35.4% and the HEMOGLOBIN ([…], time 14 day) was 12.88 G/DL. For the same compound, the “LEUKOCYTE COUNT” value ([…], time 14 day) was 15.37 x10E3/uL, the LYMPHOCYTE ([…], time 14 day) was 80.83% and the “MEAN CORPUSCULAR HEMOGLOBIN” value ([…], time 14 day) was 21.18 pg. The “MEAN CORPUSCULAR HEMOGLOBIN CONCENTRATION” value ([…], time 14 day) was 36.43 G/DL, the “MEAN CORPUSCULAR VOLUME” value ([…], time 14 day) was 58.17 fL and the MONOCYTE ([…], time 14 day) was 2.17%. The NEUTROPHIL ([…], time 14 day) was 16.5%, the “NUCLEATED RED BLOOD CELLS” value ([…], time 14 day) was 0.17 /100WBC and the “PLATELET COUNT” value ([…], time 14 day) was 1016 x10E3/uL. For the same compound, the “ALANINE AMINOTRANSFERASE” value ([…], time 14 day) was 53.33 u/L, the ALBUMIN ([…], time 14 day) was 3.93 G/DL and the “ALKALINE PHOSPHATASE” value ([…], time 14 day) was 319.83 u/L. For the same compound, the “ASPARTATE AMINOTRANSFERASE” value ([…], time 14 day) was 84 u/L, the “BLOOD UREA NITROGEN” value ([…], time 14 day) was 15.5 mg/dL and the “CARBON DIOXIDE” value ([…], time 14 day) was 34 mmol/L. For the same compound, the CHLORIDE ([…], time 14 day) was 101.83 MEQ/L, the CHOLESTEROL ([…], time 14 day) was 57 mg/dL and the CREATININE ([…], time 14 day) was 0.21 mg/dL. For the same compound, the GLUCOSE ([…], time 14 day) was 182.33 mg/dL, the “LACTATE DEHYDROGENASE” value ([…], time 14 day) was 104.67 u/L and the LIPASE ([…], time 14 day) was 9.17 u/L. For the same compound, the PHOSPHORUS ([…], time 14 day) was 11.12 mg/dL, the POTASSIUM ([…], time 14 day) was 5.81 MEQ/L and the SODIUM ([…], time 14 day) was 144.85 MEQ/L. For the same compound, the “TOTAL BILIRUBIN” value ([…], time 14 day) was 0.18 mg/dL, the “TOTAL PROTEIN” value ([…], time 14 day) was 5.92 G/DL and the “URIC ACID” value ([…], time 14 day) was 1.38 mg/dL.
